Results: patent US20240108753A1, “NUCLEIC ACID DELIVERY” (NUNTIUS THERAPEUTICS LIMITED, priority 2021, published 2024)

Experiments:
Neuro2A cells = experiment: DNA (pCl-Luc luciferase plasmid) transfection with peptide dendrimer and lipid; type: cell-based, mouse; conditions: 0.25 μg pCl-Luc
HeLa cells = experiment: as above; type: cell-based, human; conditions: 0.25 μg pCl-Luc
Procedure: Cell Lines, transfection reagents and plasmids. HeLa cells were maintained in RPMI medium with 10% (v/v) FCS and 1% (v/v) P/S in a humidified atmosphere in 5% CO2 and 37° C. The plasmid pCl-Luc was derived from plasmid pCl (Promega, Southampton, UK) with the luciferase gene inserted. Branched PEI (25 kDa) was purchased from Sigma-Aldrich. Lipofectamine 2000 (L2000) and Lipofectin (DOTMA:DOPE, 1:1 (w/w)) were obtained from Invitrogen. PEI, L2000 and lipofectin were used as positive control transfection agents in accordance with the manufacturer's instructions.
Transfection procedure. 24 hours before transfection, HeLa cells were seeded (10,000 cells in 100 μL/well) in 96 well plates in order to reach 70% confluence. Plasmid transfection complexes were formed by mixing the dendrimers (100 μL, from 60 μg to 105 μg, dependent on N/P ratios) with lipofectin (4 μg; 100 μL). These mixtures were incubated with a pCl-Luc (4 μg; 100 μL) at different N/P ratios in OptiMEM for 30 min at 25° C. Transfection control complexes (PEI, Lipofectin or L2000) (total 100 μL in OptiMEM) were mixed with pCl-Luc (4 μg; 100 μL) at the respective manufacturers' recommended concentrations. For transfection in serum-free medium, before overlaying the DNA complexes on the cells, OptiMEM was added to dilute the complexes, so that each complex contained 0.25 μg DNA in a total volume of 100 μL in one well of a 96 well plate. For transfection in serum medium, before overlaying the DNA complexes on the cells, full growth medium was added to dilute the complexes, so that each complex contained 0.25 μg DNA in a total volume of 100 μL in one well of a 96 well plate. After removing complete media from the cells, the complexes were added to the plates. The plates were incubated for 4 hours at 37° C. Then, the transfection solutions were replaced by full growth media for 24 hours before luciferase activity was assayed.
Transgene expression assay. The cells were washed twice with PBS and incubated with reporter lysis buffer (20 μL, Promega) for 20 min at 4° C., then overnight at −80° C. After the cells were defrosted at room temperature, luciferase assay buffer (100 μL, Promega; prepared according to the manufacturer's protocol) was added to each well. The luminescent product was measured by Relative Light Units (RLU) in a FLUOstar Optima luminometer (BMG Labtech).
Protein content determination. The protein content of each cell lysate was determined by mixing the lysate (20 μL) with Bio-Rad Protein Assay Reagent (180 μL, Bio-Rad, Hemel Hempstead, UK). After incubation of 10 min, the absorbance at 590 nm was measured and converted to protein concentration using a BSA standard curve. RLU per mg of protein represented luciferase activity. The ratio of these two values is the activity per protein unit (in RLU/mg).

| Substance | DNA transfection efficiency (luciferase, normalised to D/D), in words (Neuro2A cells) | DNA transfection efficiency (luciferase, normalised to D/D), in words (HeLa cells) |
| --- | --- | --- |
| (KL)8(KKL)4(KKL)2KGSA-NH2 [Ala-G1,2,3-KL] | did not affect the transfection results | did not affect the transfection results |
| (LK)8(KLK)4(KLK)2KGSC-NH2 [G1,2,3-LK] | did not have a significant difference | did not have a significant difference |
| (KL)8(KKL)4(KKL)2KKLC-NH2 [G0,1,2,3-KL] | did not affect the transfection results | did not affect the transfection results |
| (K)8(KK)4(KK)2KGSC-NH2 [G1,2,3-K] | not as effective as G1,2,3-KL | not as effective as G1,2,3-KL |
| (KL)4(KKL)2KGSC-NH2 [G1,2-KL] |  | higher efficiency than in Neuro2A cells |
| (kl)8(kkl)4(kkl)2kgsc-NH2 [D-G1,2,3KL] | did not have any significant impact on transfection | did not have any significant impact on transfection |
| (RL)4(KRL)2KGSC-NH2 [G1,2-RL] | higher transfection efficiency | higher transfection efficiency |
